From article PMC11671526, “β-caryophyllene sensitizes hepatocellular carcinoma cells to chemotherapeutics and inhibits cell malignancy through targeting MAPK signaling pathway” (Frontiers in Pharmacology, 2024)

System: HepG2 cells
Test: RNA-seq transcriptome analysis of differentially expressed genes
Format: cell-based, human
Details: BCP vs control HepG2
Experimental: The quality and concentration of RNA were examined by MOPS RNA electrophoresis and Eppendorf BioSpectrometer. The transcriptome analysis was performed by BGI-Wuhan China. The RNA-seq dataset of this study is accessible in the Gene Expression Omnibus (GEO) with an access number of GSE276099. The sequence library for each sample was prepared using the BGISEQ-500 platform with a 50-bp single-end (SE50) format. […]2.2.1) was used to align the clean reads to the reference genome and alignment of the clean reads to the reference genes was carried out using Bowtie2 (v2.4.5) ([Langmead and Salzberg, 2012]; [Kim et al., 2015]). Gene expression levels were calculated by RSEM (v1.3.1) ([Li and Dewey, 2011]). Analysis of differential gene expression was performed using edgeR in the Bioconductor software package ([Robinson et al., 2010]). Using a standard protocol, the RNA samples were also examined by reverse transcription and quantitative polymerase chain reaction (RT-qPCR). In brief, for reverse transcription, total RNA (1 μg) and gDNA wiper Mix were incubated at 42°C for 2 min. The samples were immediately incubated with a master mix containing 10 pmol/μL of poly (dT) primers at 37°C for 15 min and 85°C for 5 s. To detect the expression of specific genes by qPCR analysis, gene-specific primers (shown in Supplementary Table S1) were mixed with the ChamQ Universal SYBER qPCR Master Mix and the reaction was conducted using the Roche Lightcycler 480. The GAPDH value was used to normalize the results of each gene. The RNA-seq data of BCP-treated HepG2 cells were screened for DEGs. Gene symbols were turned into Enterz ID using the org.Hs.eg.db Bio-conductor R package. The cluster profiler (v4.6.2) package was used to perform the Kyoto Encyclopedia of Genes and Genomes (KEGG) and Gene Ontology (GO) enrichment analyses ([Wu et al., 2021]). Following the Transcript per million (TPM) data of the dataset, the line chart, and heatmap were plotted using ggplot2 and pheatmap R packages, respectively.

For `C=C1CC/C=C(\C)CC[C@@H]2[C@@H]1CC2(C)C` [BCP, β-caryophyllene], the “logFC APOBEC3C” value (gene APOBEC3C, RNA-seq) was -0.5856, the “change APOBEC3C” value (gene APOBEC3C, DEG direction) was “Down” and the “logFC ARRB1” value (gene ARRB1, RNA-seq) was -0.7626. The “change ARRB1” value (gene ARRB1, DEG direction) was “Down”, the “logFC ATP9A” value (gene ATP9A, RNA-seq) was 0.6507 and the “change ATP9A” value (gene ATP9A, DEG direction) was “Up”. The “logFC ATP11C” value (gene ATP11C, RNA-seq) was -0.7847, the “change ATP11C” value (gene ATP11C, DEG direction) was “Down” and the “logFC AXIN2” value (gene AXIN2, RNA-seq) was 0.6672. The “change AXIN2” value (gene AXIN2, DEG direction) was “Up”, the “logFC B4GALNT4” value (gene B4GALNT4, RNA-seq) was -0.5947 and the “change B4GALNT4” value (gene B4GALNT4, DEG direction) was “Down”. The “logFC BACE2” value (gene BACE2, RNA-seq) was 0.7147, the “change BACE2” value (gene BACE2, DEG direction) was “Up” and the “logFC BICDL1” value (gene BICDL1, RNA-seq) was -0.8616. The “change BICDL1” value (gene BICDL1, DEG direction) was “Down”, the “logFC BIRC7” value (gene BIRC7, RNA-seq) was 0.7538 and the “change BIRC7” value (gene BIRC7, DEG direction) was “Up”. The “logFC BIVM-ERCC5” value (gene BIVM-ERCC5, RNA-seq) was 0.699, the “change BIVM-ERCC5” value (gene BIVM-ERCC5, DEG direction) was “Up” and the “logFC BLCAP” value (gene BLCAP, RNA-seq) was -0.6138. The “change BLCAP” value (gene BLCAP, DEG direction) was “Down”, the “logFC BMP2” value (gene BMP2, RNA-seq) was 0.7686 and the “change BMP2” value (gene BMP2, DEG direction) was “Up”. For the same compound, the “logFC BUB1B-PAK6” value (gene BUB1B-PAK6, RNA-seq) was -1.6183, the “change BUB1B-PAK6” value (gene BUB1B-PAK6, DEG direction) was “Down” and the “logFC C1orf198” value (gene C1orf198, RNA-seq) was 0.6. The “change C1orf198” value (gene C1orf198, DEG direction) was “Up”, the “logFC C1orf216” value (gene C1orf216, RNA-seq) was -0.8102 and the “change C1orf216” value (gene C1orf216, DEG direction) was “Down”. The “logFC C3orf80” value (gene C3orf80, RNA-seq) was -1.174, the “change C3orf80” value (gene C3orf80, DEG direction) was “Down” and the “logFC C4B” value (gene C4B, RNA-seq) was 2.54. The “change C4B” value (gene C4B, DEG direction) was “Up”, the “logFC C11orf86” value (gene C11orf86, RNA-seq) was -1.473 and the “change C11orf86” value (gene C11orf86, DEG direction) was “Down”. For the same compound, the “logFC C19orf71” value (gene C19orf71, RNA-seq) was 0.8161, the “change C19orf71” value (gene C19orf71, DEG direction) was “Up” and the “logFC CA5B” value (gene CA5B, RNA-seq) was -1.2201. For the same compound, the “change CA5B” value (gene CA5B, DEG direction) was “Down”, the “logFC CARD6” value (gene CARD6, RNA-seq) was -1.5314 and the “change CARD6” value (gene CARD6, DEG direction) was “Down”. For the same compound, the “logFC CCDC24” value (gene CCDC24, RNA-seq) was 1.127, the “change CCDC24” value (gene CCDC24, DEG direction) was “Up” and the “logFC CCDC86” value (gene CCDC86, RNA-seq) was -0.7779. The “change CCDC86” value (gene CCDC86, DEG direction) was “Down”, the “logFC CCL2” value (gene CCL2, RNA-seq) was -1.48 and the “change CCL2” value (gene CCL2, DEG direction) was “Down”. The “logFC CCL5” value (gene CCL5, RNA-seq) was -1.124, the “change CCL5” value (gene CCL5, DEG direction) was “Down” and the “logFC CCL26” value (gene CCL26, RNA-seq) was -1.513. The “change CCL26” value (gene CCL26, DEG direction) was “Down”, the “logFC CELF2” value (gene CELF2, RNA-seq) was 0.8875 and the “change CELF2” value (gene CELF2, DEG direction) was “Up”. For the same compound, the “logFC CHST2” value (gene CHST2, RNA-seq) was -1.145, the “change CHST2” value (gene CHST2, DEG direction) was “Down” and the “logFC CKAP2L” value (gene CKAP2L, RNA-seq) was 0.6857. The “change CKAP2L” value (gene CKAP2L, DEG direction) was “Up”, the “logFC CLDN2” value (gene CLDN2, RNA-seq) was 1.355 and the “change CLDN2” value (gene CLDN2, DEG direction) was “Up”. The “logFC CLIP2” value (gene CLIP2, RNA-seq) was -0.6426, the “change CLIP2” value (gene CLIP2, DEG direction) was “Down” and the “logFC CLK1” value (gene CLK1, RNA-seq) was 0.5953. For the same compound, the “change CLK1” value (gene CLK1, DEG direction) was “Up”, the “logFC CLTCL1” value (gene CLTCL1, RNA-seq) was 0.7125 and the “change CLTCL1” value (gene CLTCL1, DEG direction) was “Up”. The “logFC COL1A1” value (gene COL1A1, RNA-seq) was 0.6324, the “change COL1A1” value (gene COL1A1, DEG direction) was “Up” and the “logFC COL4A1” value (gene COL4A1, RNA-seq) was 0.7663. The “change COL4A1” value (gene COL4A1, DEG direction) was “Up”, the “logFC COL7A1” value (gene COL7A1, RNA-seq) was 0.6003 and the “change COL7A1” value (gene COL7A1, DEG direction) was “Up”. For the same compound, the “logFC CPM” value (gene CPM, RNA-seq) was 0.6061, the “change CPM” value (gene CPM, DEG direction) was “Up” and the “logFC CPS1” value (gene CPS1, RNA-seq) was 0.6121. The “change CPS1” value (gene CPS1, DEG direction) was “Up”, the “logFC CRABP2” value (gene CRABP2, RNA-seq) was -0.6843 and the “change CRABP2” value (gene CRABP2, DEG direction) was “Down”. The “logFC CREB3L4” value (gene CREB3L4, RNA-seq) was 0.5981, the “change CREB3L4” value (gene CREB3L4, DEG direction) was “Up” and the “logFC CREG2” value (gene CREG2, RNA-seq) was 0.6638. The “change CREG2” value (gene CREG2, DEG direction) was “Up”, the “logFC CRELD1” value (gene CRELD1, RNA-seq) was 0.9439 and the “change CRELD1” value (gene CRELD1, DEG direction) was “Up”. For the same compound, the “logFC CSRP2” value (gene CSRP2, RNA-seq) was 0.7909, the “change CSRP2” value (gene CSRP2, DEG direction) was “Up” and the “logFC CYP1A1” value (gene CYP1A1, RNA-seq) was -0.7093. For the same compound, the “change CYP1A1” value (gene CYP1A1, DEG direction) was “Down”, the “logFC CYP3A5” value (gene CYP3A5, RNA-seq) was -1.0618 and the “change CYP3A5” value (gene CYP3A5, DEG direction) was “Down”. The “logFC CYP3A7” value (gene CYP3A7, RNA-seq) was -2.402, the “change CYP3A7” value (gene CYP3A7, DEG direction) was “Down” and the “logFC CYP11A1” value (gene CYP11A1, RNA-seq) was -1.306. The “change CYP11A1” value (gene CYP11A1, DEG direction) was “Down”, the “logFC CYP26B1” value (gene CYP26B1, RNA-seq) was -0.8298 and the “change CYP26B1” value (gene CYP26B1, DEG direction) was “Down”. The “logFC DAAM1” value (gene DAAM1, RNA-seq) was -0.6083, the “change DAAM1” value (gene DAAM1, DEG direction) was “Down” and the “logFC DDIT3” value (gene DDIT3, RNA-seq) was 0.9459. For the same compound, the “change DDIT3” value (gene DDIT3, DEG direction) was “Up”, the “logFC DDR2” value (gene DDR2, RNA-seq) was 0.7117 and the “change DDR2” value (gene DDR2, DEG direction) was “Up”. For the same compound, the “logFC DENND2D” value (gene DENND2D, RNA-seq) was -1.958, the “change DENND2D” value (gene DENND2D, DEG direction) was “Down” and the “logFC DEPDC1” value (gene DEPDC1, RNA-seq) was 0.5867. For the same compound, the “change DEPDC1” value (gene DEPDC1, DEG direction) was “Up”, the “logFC DGKD” value (gene DGKD, RNA-seq) was 0.5855 and the “change DGKD” value (gene DGKD, DEG direction) was “Up”. For the same compound, the “logFC DLG2” value (gene DLG2, RNA-seq) was -1.169, the “change DLG2” value (gene DLG2, DEG direction) was “Down” and the “logFC DNER” value (gene DNER, RNA-seq) was 1.171. The “change DNER” value (gene DNER, DEG direction) was “Up”, the “logFC DOCK4” value (gene DOCK4, RNA-seq) was -0.9058 and the “change DOCK4” value (gene DOCK4, DEG direction) was “Down”. The “logFC EFNB2” value (gene EFNB2, RNA-seq) was -0.688, the “change EFNB2” value (gene EFNB2, DEG direction) was “Down” and the “logFC EGLN3” value (gene EGLN3, RNA-seq) was -0.764.
